# How the values were obtained:
# [1] = system: NMDARs; test: NMDAR currents in cultured cortical neurons of WT and TRPM2-KO mice (whole cell recording); format: cell-based, mouse; conditions: for NMDAR current amplitude in WT neurons: 1 μM compound overnight, 10 μM NMDA, -80 mV, compared with TRPM2-KO neurons
# Procedure: FIGS. 4O and 4P show the effects of stausporine on NMDAR currents recorded from cortical neurons cultured for 14 days. FIG. 4O show representative NMDAR currents elicited at −80 mV by 10 μM NMDA in WT and TRPM2-KO (gM2KO) neurons treated with or without Stausporine at 1 μM for overnight. FIG. 4P show the average current amplitude (ns, p>0.05; **, p<0.01; ANOVA, Bonferroni's test; mean±SEM, n=11, 10, 10, 12 neurons from 2 mice respectively).
# FIG. 4S show representative NMDAR currents elicited by NMDA in WT and TRPM2-KO neurons treated with or without endosidin2 at 1 μM for overnight.
# FIGS. 5I-5K show the effects of TAT-EE3 on PKC induced changes of NMDAR currents recorded in cortical neurons of WT and TRPM2-KO. Neurons were incubated with 10 μM TAT-SC or TAT-EE3 for overnight before current recording. FIG. 5I show representative NMDAR currents elicited by 10 μM NMDA at −80 mV before and after PMA (1 μM) perfusion for 20 s. TAT-SC or TAT-EE3 10 μM was included in the pipette solution for current recording.
# FIGS. 6A and 6B show the effects of TAT-EE3 on NMDAR currents in WT and gM2KO cortical neurons cultured for 14 days. […] TAT-SC or TAT-EE3 10 μM was included in the pipette solution during current recording.
# Mice pups at P0 were euthanized based on animal protocol. Whole brain was dissected out immediately and immersed in ice-cold Hank's Balanced Salt Solution (HBSS). Meninges were removed thoroughly, and tissue of different brain areas was taken based on purposes. Brain tissue was cut into small pieces and digested with 0.25% trypsin (Thermal Fisher Scientific, 15090-046) in HBSS at 37° C. for 20 min. Digestion solution was quickly removed, and tissue pellets are washed with Neurobasal® Medium (Thermal Fisher Scientific, 21103-049) for 3 times. Cells were resuspended with appropriate amount of Neurobasal® Medium supplemented with 2% B27® supplement (Thermal Fisher Scientific, 17504-044), 3% horse serum (Thermal Fisher Scientific, 16050114), 0.25% L-glutamine (Thermal Fisher Scientific, 25030-081) and 1% penicillin/streptomycin (Thermal Fisher Scientific, 15140-122). Isolated cells were counted and plated on coverslips pre-coated with poly-L-lysine (Sigma-Aldrich, P4707) at a density about 500×10^3 cells/cm2 for OGD and H2O2 treatment, and 100×10^3 cells/cm2 for current recording. Cytosine arabinoside (Sigma-Aldrich, C1768) was added to maintain a concentration at 1 μM to inhibit the proliferation of non-neuronal cells. 24 h after plating, culture medium was changed to Neurobasal® Medium supplemented with 2% B27® supplement, 0.25% L-glutamine and 1% penicillin/streptomycin. The concentration of Cytosine arabinoside (araC) was increased to 2 μM. Medium was changed every 3 days. OGD and H2O2 treatment was conducted at 7th day of culture, and current recording was conducted at 7th, 10th and 14th day of culture.
# Whole cell currents were recorded using an Axopatch 200B amplifier. Data were digitized at 10 or 20 kHz and digitally filtered offline at 1 kHz. Patch electrodes were pulled from borosilicate glass and fire-polished to a resistance of ˜3 MΩ when filled with internal solutions. Series resistance (Rs) was compensated up to 90% to reduce series resistance errors to <5 mV. Cells in which Rs was >10 MΩ were discarded (Du, J., Xie, J., and Yue, L. (2009). Modulation of TRPM2 by acidic pH and the underlying mechanisms for pH sensitivity. J Gen Physiol 134, 471-88).
# For heterologous expression, transfected HEK-293 cells were identified by GFP fluorescence. TRPM2 current recording in transfected HEK-293T cells was performed as we previously reported (Du, J., Xie, J., and Yue, L. (2009). Intracellular calcium activates TRPM2 and its alternative spliced isoforms. Proceedings of the National Academy of Sciences 107, 7239-44; Du, J., Xie, J., and Yue, L. (2009). Modulation of TRPM2 by acidic pH and the underlying mechanisms for pH sensitivity. J Gen Physiol 134, 471-88). […]
# [2] = system: NMDARs (GluN1a, GluN2a, GluN2b); test: Surface expression of NMDARs in HEK293T cells co-transfected with NMDARs and TRPM2 (WB); format: cell-based, human; conditions: 1 μM compound overnight
# Procedure: FIGS. 4K-4N show the surface expression of NMDARs in HEK-293T cells co-transfected with TRPM2 or EGFP with the treatment of PKC activator PMA (FIG. 4K) and inhibitor Stausporine (FIG. 4L). Membrane (Mem) and cytocol (Cyto) NMDARs were analyzed and averaged from 3 independent experiments with 1 μM PMA treatment (FIG. 4N) or 1 μM Stausporine treatment (FIG. 4L) for overnight. Pan-cadherin and β-tubulin were loading controls for membrane and cytosol protein, respectively (*, p<0.05, **, p<0.01, ***, p<0.001, unpaired t-test, mean±SEM, n=3/group).
# FIGS. 5C-5F effects of TAT-EE3 on surface expression of NMDARs. HEK293T cells co-transfected with NMDARs with TRPM2 (+M2) or EGFP vector (Con) were treated with 10 μM TAT-SC (FIG. 5C) or TAT-EE3 (FIG. 5D) overnight. Membrane (Mem) and cytosol (Cyto) proteins of NMDARs in TAT-SC (FIG. 5E) and TAT-EE3 (FIG. 5F) treated groups were assessed by WBs and analyzed in reference to Pan-cadherin or β-tubulin (**, p<0.01, ***, p<0.001, unpaired t-test, mean±SEM). All the results were replicated in at least 3 independent experiments.
# Pan-cadherin and β-tubulin were used as loading control for membrane and cytosolic protein extraction.
# were ordered from GenScript Biotech, and dissolved in PBS to make a stock concentration at 10 mM. HEK-293T cells or isolated neurons were treated with TAT-SC or TAT-EE3 at a concentration of 10 μM for at least 8 h prior to use. Mice were injected with TAT-SC or TAT-EE3 intraperitoneally (ip) at a dose of 100 nmol/kg.
# HEK293T cells were cultured in Dulbecco's Modified Eagle's medium (DMEM) (Thermal Fisher Scientific, 12100-038) supplemented with 10% BGS (HyClone, SH30541.03) and 0.5% penicillin/streptomycin (Thermal Fisher Scientific, 15140-122) at 37° C. and 5% CO2. 8 h prior to transfection, culture medium was replaced with DMEM supplemented only with 2.5% BGS. Cells were transfected when at a confluence about 80-90% using Lipofectamine® 3000 Transfection Kit (Thermal Fisher Scientific, 2232162) based on instruction.
# NP-40/Triton lysis buffer ([…], 1% Triton™ X-100, 150 mM NaCl, 1 mM EDTA, 50 mM Tris, pH=8.0) containing proteinase inhibitors and phosphatase inhibitors was used to lyse both cultured cells and frozen brain tissue. Surface protein was extracted using Pierce® Cell Surface Protein Isolation Kit (Thermal Fisher Scientific, 89881) in transfected HEK-293T cells, and using ProteoExtract™ Native Membrane Protein Extraction Kit (Calbiochem, 444810) in brain tissue based on instructions. […] Protein concentration was measured using Pierce™ Rapid Gold BCA Protein Assay Kit.
# 30-50 μg of total protein was loaded and separated proteins were transferred to Nitrocellulose membranes. […] Band intensity was quantified using ImageJ software and normalized with appropriate loading controls.
smiles,measurement,setting,value
"CCCCCCCCCCCCCC(=O)O[C@@H]1[C@@H](C)[C@@]2(O)[C@@H](C=C(CO)C[C@]3(O)C(=O)C(C)=C[C@@H]23)[C@@H]2C(C)(C)[C@]12OC(C)=O [PMA, Phorbol-12-myristate-13-acetate, reference compound]",increase of NMDA-induced current by PMA,"[1]; WT neurons, PMA 1 μM perfusion for 20 s",about 1.5 fold
same,NMDA-induced current after PMA perfusion,"[1]; WT neurons, PMA 1 μM perfusion for 20 s, before PMA 1542.1±117.1 pA",3642.1±180.8 pA
same,surface expression level of NMDARs in cells transfected with NMDARs and TRPM2,[2],much higher level of surface NMDARs
"COc1cc(/C=N/NC(=O)c2cccc(F)c2)cc(I)c1O [Endosidin 2, reference compound]",NMDAR current amplitude in WT neurons,[1],abolished the increased current amplitude
same,surface expression level of NMDARs in cells transfected with NMDARs and TRPM2,[2],prevented the increase
"CN[C@@H]1C[C@H]2O[C@@](C)([C@@H]1OC)n1c3ccccc3c3c4c(c5c6ccccc6n2c5c31)C(=O)NC4 [stausporine, reference compound]",NMDAR current amplitude in WT neurons,[1],normalized NMDAR current amplitude in the WT neuron to the similar amplitude level of NMDAR current in TRPM2-KO neurons
same,surface expression level of NMDARs in cells transfected with NMDARs and TRPM2,[2],abolished the enhanced surface expression level

# From patent publication US20250235501A1, “Methods and Compositions for Treating or Preventing Neurological Injury or Neurological Disorders” (University of Connecticut, priority 2024, published 2025)
